These results are taken from patent publication US12357669B1, “Modification of natural compounds to create products with enhanced health benefits” (priority 2024, dated 2025).

The assay relates to patient with continuously active ulcerative colitis (UC). The experiment in a line: observations in a patient with continuously active ulcerative colitis (UC). It is filed as in vivo, human. The conditions noted are these: components without prior formation of the chelate/complex. The text has this:
Many patients with ulcerative colitis have remitting/recurring disease activity which occurs spontaneously at random times. Other factors, such as changes in diet, stress, intercurrent use of medications either to control symptoms of UC or used to treat other conditions, such as antibiotics non steroidal pain medications and steroids, may make inflammation and symptoms worse or better depending on their particular properties.
Some patients with UC have unremitting continuously active disease which never goes into remission spontaneously. Such patients make excellent study subjects since the action of compounds designed to reduce disease activity and symptoms can be evaluated without the complicating factor of spontaneous changes in disease severity.
In the patient studied in this report disease activity was observed over several decades and was continuously active with no spontaneous remissions.

In the case of iron, the “amelioration of the symptoms of ulcerative colitis” value was “not seen”.
